Test results reported in patent US11530244B2, “Cyclic polypeptides for PCSK9 inhibition” (priority 2018, dated 2022).
Starred links: 1 amine or outer side, 2 acyl side, 3 side chain; linkers in the order of their positions; H or OH if unused. Positions of bridges follow the written chain, without caps; N, C: chain ends. Non-standard residues stand in square brackets, D forms with d. Residues, ends and D or L forms follow the SMILES beside them. Groups on a side chain read outwards from the residue. *: point of attachment. Phe(3-CH2NH2) = O=C([C@H](Cc1cccc(CN[*:3])c1)N[*:1])[*:2]; PEG12 = NCCOCCOCCOCCOCCOCCOCCOCCOCCOCCOCCOCCOCCC(=O)O; X1 = O=C1CC[C@@H](C(=O)[*:1])N1CCCSCc1cccc(C[*:2])c1; Ala(imidazol-2-yl) = N[C@@H](Cc1ncc[nH]1)C(=O)O; Trp(5-F) = N[C@@H](Cc1c[nH]c2ccc(F)cc12)C(=O)O; Phe(4-CH2NH2) = NCc1ccc(C[C@H](N)C(=O)O)cc1; X49 = NCCCC[C@H](N[*:1])c1nc(C(=O)[*:2])co1; X3 = O=C(CCSCc1cc(F)cc(CSCCN[*:1])c1)[*:2]; Heptanedioyl = O=C(CCCCCC(=O)[*:2])[*:1]; γGlu = O=C(O)[C@H](CCC(=O)[*:2])N[*:1]; mXylylene = c1cc(C[*:1])cc(C[*:2])c1; X48 = CC(N[*:1])c1ncc(C(=O)[*:2])s1; Adipoyl = O=C(CCCCC(=O)[*:2])[*:1]; Glutaryl = O=C(CCCC(=O)[*:2])[*:1]; Lys(Me2) = CN(C)CCCC[C@H](N)C(=O)O; Palmitoyl = CCCCCCCCCCCCCCCC(=O)*; αMeP = C[C@@]1(C(=O)O)CCCN1; AEEEA = NCCOCCOCCOCC(=O)O; Aun = NCCCCCCCCCCC(=O)O; PEG2 = NCCOCCOCCC(=O)O; AEEA = NCCOCCOCC(=O)O; Mpa = O=C(O)CCS

Legend:
[1] = target: T1, PCSK9 (Homo sapiens (Human), UniProt Q8NBP7); experiment: PCSK9 Alexa FRET Plus assay (displacement of AlexaFluor647 tagged cyclic peptide Reagent B); assay type: binding; conditions: Alexa FRET Plus, 0.5 nM PCSK9, 960 nM AF cyclic peptide Reagent B; read-out: IC50
Outline: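 TR-FRET displacement with final 0.5 nM biotinylated PCSK9, 1.25 nM Strep-Eu and 960 nM AlexaFluor-tagged cyclic peptide in HEPES pH 7.4, NaCl, CaCl2, BSA, P20; ≥2 h at room temperature. IC50 from sigmoidal fit, converted to Ki using peptide KD. Falling europium counts flagged false positives.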

[2] = target: T1, PCSK9; experiment: PCSK9 Alexa FRET Standard assay (displacement of AlexaFluor647 tagged cyclic peptide Reagent A); assay type: binding; conditions: PCSK9 Alexa FRET Standard assay, 0.5 nM PCSK9, 20 nM AF cyclic peptide Reagent A; read-out: IC50
Outline: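 TR-FRET displacement: 0.5 nM biotinylated PCSK9 with 1.25 nM Strep-Eu and 20 nM AlexaFluor-tagged cyclic peptide (final) in 50 mM HEPES pH 7.4, 0.15 M NaCl, 5 mM CaCl2, 0.01% BSA, 0.01% P20, ≥2 h at room temperature. IC50 from sigmoidal fit, converted to Ki via peptide KD; falling Eu counts flagged false positives.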

T1 sequence (Q8NBP7 153-692): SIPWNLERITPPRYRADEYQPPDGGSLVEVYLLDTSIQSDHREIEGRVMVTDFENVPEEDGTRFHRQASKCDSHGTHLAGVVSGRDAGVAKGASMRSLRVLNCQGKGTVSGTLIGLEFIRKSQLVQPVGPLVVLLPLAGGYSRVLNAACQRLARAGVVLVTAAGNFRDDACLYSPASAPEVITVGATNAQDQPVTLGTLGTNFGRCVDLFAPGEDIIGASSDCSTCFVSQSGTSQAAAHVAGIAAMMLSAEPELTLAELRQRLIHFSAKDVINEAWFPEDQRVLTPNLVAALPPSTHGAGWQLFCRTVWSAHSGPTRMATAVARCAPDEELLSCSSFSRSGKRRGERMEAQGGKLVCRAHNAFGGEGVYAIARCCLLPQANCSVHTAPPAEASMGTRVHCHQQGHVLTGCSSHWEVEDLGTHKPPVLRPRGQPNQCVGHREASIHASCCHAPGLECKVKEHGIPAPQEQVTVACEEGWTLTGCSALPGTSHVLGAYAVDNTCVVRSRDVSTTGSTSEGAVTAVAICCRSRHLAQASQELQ

Row | Structure (SMILES) | IC50 [1] | IC50 [2]
1 | CCCCCCCCCCCCCCCC(=O)N[C@@H](CCC(=O)NCCOCCOCC(=O)NCCOCCOCC(=O)NCc1cccc(C[C@@H]2NC(=O)[C@@H](C)NC(=O)[C@H](CCCCN)NC(=O)CCSCc3cccc(c3)CSC[C@@H](C(N)=O)NC(=O)[C@]3(C)CCCN3C(=O)[C@H](Cc3ccc(O)cc3)NC(=O)[C@H](Cc3cnc[nH]3)NC(=O)[C@H](CC(=O)O)NC(=O)[C@H](Cc3c[nH]c4ccc(F)cc34)NC2=O)c1)C(=O)O [Compound 454] ([Mpa]K[dA][Phe(3-CH2NH2)]([AEEA-AEEA-γGlu-Palmitoyl])[Trp(5-F)]DHY[αMeP]C-NH2; linker 1-10 via mXylylene) | 100 to 500 nM | 0.11 to 100 nM
2 | NC(=O)[C@@H]1Cc2ccc(cc2)CNC(=O)CCCCCC(=O)NCC(=O)N[C@@H](Cc2c[nH]c3ccc(F)cc23)C(=O)N[C@@H](Cc2c[nH]c3ccc(F)cc23)C(=O)N[C@@H](CC(=O)O)C(=O)N[C@@H](Cc2cnc[nH]2)C(=O)N[C@@H](Cc2ccc(O)cc2)C(=O)N1 [Compound 455] (G[Trp(5-F)][Trp(5-F)]DHY[Phe(4-CH2NH2)]-NH2; linker N-7 via Heptanedioyl) | 500 to 5000 nM | 1000 to 12100 nM
3 | CCCCCCCCCCCCCCCC(=O)N[C@@H](CCC(=O)NCCOCCOCC(=O)NCCOCCOCC(=O)NCCCC[C@@H]1NC(=O)CCSCc2cccc(c2)CSC[C@@H](C(N)=O)NC(=O)[C@]2(C)CCCN2C(=O)[C@H](Cc2ccc(O)cc2)NC(=O)[C@H](Cc2cnc[nH]2)NC(=O)[C@H](CC(=O)O)NC(=O)[C@H](Cc2c[nH]c3ccc(F)cc23)NC(=O)[C@H](Cc2c[nH]c3ccc(F)cc23)NC(=O)[C@@H](C)NC1=O)C(=O)O [Compound 456] ([Mpa]K([AEEA-AEEA-γGlu-Palmitoyl])[dA][Trp(5-F)][Trp(5-F)]DHY[αMeP]C-NH2; linker 1-10 via mXylylene) | 500 to 5000 nM | 21000 to 50000 nM
4 | NC(=O)[C@@H]1Cc2cccc(c2)CNC(=O)CCCCC(=O)NCC(=O)N[C@@H](Cc2c[nH]c3ccc(F)cc23)C(=O)N[C@@H](Cc2c[nH]c3ccc(F)cc23)C(=O)N[C@@H](CC(=O)O)C(=O)N[C@@H](Cc2cnc[nH]2)C(=O)N[C@@H](Cc2ccc(O)cc2)C(=O)N1 [Compound 457] (G[Trp(5-F)][Trp(5-F)]DHY[Phe(3-CH2NH2)]-NH2; linker N-7 via Adipoyl) | 500 to 5000 nM | 21000 to 50000 nM
5 | NC(=O)[C@@H]1Cc2cccc(c2)CNC(=O)CCCC(=O)NCC(=O)N[C@@H](Cc2c[nH]c3ccc(F)cc23)C(=O)N[C@@H](Cc2c[nH]c3ccc(F)cc23)C(=O)N[C@@H](CC(=O)O)C(=O)N[C@@H](Cc2ncc[nH]2)C(=O)N[C@@H](Cc2ccc(O)cc2)C(=O)N1 [Compound 458] (G[Trp(5-F)][Trp(5-F)]D[Ala(imidazol-2-yl)]Y[Phe(3-CH2NH2)]-NH2; linker N-7 via Glutaryl) | 500 to 5000 nM | 21000 to 50000 nM
6 | CCCc1cccc(C[C@@H]2NC(=O)[C@@H](C)NC(=O)[C@H](C)NC(=O)CCSCc3cccc(c3)CSCCNC(=O)[C@]3(C)CCCN3C(=O)[C@H](Cc3ccc(OC)cc3)NC[C@H]([C@@H](C)OC)NC(=O)[C@@H]3[C@@H](O)CCN3C(=O)[C@H](Cc3c[nH]c4ccc(F)cc34)NC2=O)c1 [Compound 459] | 500 to 5000 nM | 21000 to 50000 nM
7 | COc1ccc(C[C@@H]2NC(=O)[C@H](Cc3ncc[nH]3)NC(=O)[C@H](CC(=O)O)NC(=O)[C@H](Cc3c[nH]c4ccc(F)cc34)NC(=O)[C@H](Cc3c[nH]c4ccc(F)cc34)NC(=O)[C@@H](C)NC(=O)[C@H](CCCCN(C)C)NC(=O)CCSCc3cc(F)cc(c3)CSCCNC(=O)[C@]3(C)CCCN3C2=O)cc1 [Compound 466] (cyclo(D[Ala(imidazol-2-yl)]Y(Me)[αMeP][X3][Lys(Me2)][dA][Trp(5-F)][Trp(5-F)])) | 500 to 5000 nM | 100 to 1000 nM
8 | CCCCCCCCCCCCCCCC(=O)N[C@@H](CCC(=O)NCCOCCOCCC(=O)NCCOCCOCC(=O)NCCCC[C@H](NC(=O)COCCOCCOCCNC(=O)[C@@H]1CSCc2cccc(c2)CSCCC(=O)N[C@@H](CCCCN)C(=O)N[C@H](C)C(=O)N[C@@H](Cc2c[nH]c3ccc(F)cc23)C(=O)N[C@@H](Cc2c[nH]c3ccc(F)cc23)C(=O)N[C@@H](CC(=O)O)C(=O)N[C@@H](Cc2cnc[nH]2)C(=O)N[C@@H](Cc2ccc(O)cc2)C(=O)N2CCC[C@@]2(C)C(=O)N1)C(N)=O)C(=O)O [Compound 473] ([Mpa]K[dA][Trp(5-F)][Trp(5-F)]DHY[αMeP]C[AEEEA]K([AEEA-PEG2-γGlu-Palmitoyl])-NH2; linker 1-10 via mXylylene) | 500 to 5000 nM | 21000 to 50000 nM
9 | CCCCCCCCCCCCCCCC(=O)N[C@@H](CCC(=O)NCCOCCOCCC(=O)NCCOCCOCC(=O)NCCCC[C@H](NC(=O)COCCOCCOCCOCCOCCOCCOCCOCCOCCOCCOCCOCCNC(=O)[C@@H]1CSCc2cccc(c2)CSCCC(=O)N[C@@H](CCCCN)C(=O)N[C@H](C)C(=O)N[C@@H](Cc2c[nH]c3ccc(F)cc23)C(=O)N[C@@H](Cc2c[nH]c3ccc(F)cc23)C(=O)N[C@@H](CC(=O)O)C(=O)N[C@@H](Cc2cnc[nH]2)C(=O)N[C@@H](Cc2ccc(O)cc2)C(=O)N2CCC[C@@]2(C)C(=O)N1)C(N)=O)C(=O)O [Compound 474] | 500 to 5000 nM | 1000 to 12100 nM
10 | C[C@@]12CCCN1C(=O)[C@H](Cc1ccc(O)cc1)NC(=O)[C@H]1CS[C@H]3CC[C@H](NC(=O)[C@H](Cc4c[nH]c5ccc(F)cc45)NC(=O)[C@H](Cc4c[nH]c5ccc(F)cc45)NC(=O)CNC(=O)[C@H](CCCCN)NC(=O)CCSCc4cccc(c4)CSC[C@@H](C(N)=O)NC2=O)C(=O)N31 [Compound 475] | 500 to 5000 nM | 21000 to 50000 nM
11 | CCCCCCCCCCCCCCCC(=O)N[C@@H](CCC(=O)NCCOCCOCC(=O)NCCOCCOCC(=O)NCc1cccc(C[C@@H]2NC(=O)[C@@H](C)NC(=O)[C@H](CCCCN)NC(=O)CCSCc3cccc(c3)CSC[C@@H](C(N)=O)NC(=O)[C@]3(C)CCCN3C(=O)[C@H](Cc3ccc(O)cc3)NC(=O)[C@H](Cc3cnc[nH]3)NC(=O)[C@H](CC(=O)O)NC(=O)[C@H](Cc3c[nH]c4ccc(F)cc34)NC2=O)c1)C(=O)O [Compound 476] ([Mpa]K[dA][Phe(3-CH2NH2)]([AEEA-AEEA-γGlu-Palmitoyl])[Trp(5-F)]DHY[αMeP]C-NH2; linker 1-10 via mXylylene) | 100 to 500 nM | 0.11 to 100 nM
12 | C[C@@]12CCCN1C(=O)[C@H](Cc1ccc(O)cc1)NC(=O)[C@H](Cc1c[nH]cn1)NC(=O)[C@H](CC(=O)O)NC(=O)[C@H](Cc1c[nH]c3ccc(F)cc13)NC(=O)[C@H](Cc1c[nH]c3ccc(F)cc13)NC(=O)c1coc(n1)[C@H](CCCCN)NC(=O)CCSCc1cccc(c1)CSC[C@@H](C(N)=O)NC2=O [Compound 477] ([Mpa][X49][Trp(5-F)][Trp(5-F)]DHY[αMeP]C-NH2; linker 1-9 via mXylylene) | 500 to 5000 nM | 1000 to 12100 nM
13 | CCCCCCCCCCCCCCCC(=O)N[C@@H](CCC(=O)NCCOCCOCCOCCOCCOCCOCCOCCOCCOCCOCCOCCOCCC(=O)NCc1cccc(C[C@@H]2NC(=O)[C@@H](C)NC(=O)[C@H](CCCCN)NC(=O)CCSCc3cccc(c3)CSC[C@@H](C(N)=O)NC(=O)[C@]3(C)CCCN3C(=O)[C@H](Cc3ccc(O)cc3)NC(=O)[C@H](Cc3cnc[nH]3)NC(=O)[C@H](CC(=O)O)NC(=O)[C@H](Cc3c[nH]c4ccc(F)cc34)NC2=O)c1)C(=O)O [Compound 478] ([Mpa]K[dA][Phe(3-CH2NH2)]([PEG12-γGlu-Palmitoyl])[Trp(5-F)]DHY[αMeP]C-NH2; linker 1-10 via mXylylene) | 500 to 5000 nM | 21000 to 50000 nM
14 | CCCCCCCCCCCCCCCC(=O)N[C@@H](CCC(=O)NCCOCCOCC(=O)NCCOCCOCC(=O)NCCCC[C@H](NC(=O)CCCCCCCCCCNC(=O)[C@@H]1CSCc2cccc(c2)CSCCC(=O)N[C@@H](CCCCN)C(=O)N[C@H](C)C(=O)N[C@@H](Cc2c[nH]c3ccc(F)cc23)C(=O)N[C@@H](Cc2c[nH]c3ccc(F)cc23)C(=O)N[C@@H](CC(=O)O)C(=O)N[C@@H](Cc2cnc[nH]2)C(=O)N[C@@H](Cc2ccc(O)cc2)C(=O)N2CCC[C@@]2(C)C(=O)N1)C(N)=O)C(=O)O [Compound 479] ([Mpa]K[dA][Trp(5-F)][Trp(5-F)]DHY[αMeP]C[Aun]K([AEEA-AEEA-γGlu-Palmitoyl])-NH2; linker 1-10 via mXylylene) | 500 to 5000 nM | 0.11 to 100 nM
15 | CC1NC(=O)[C@H](Cc2c[nH]c3ccc(F)cc23)NC(=O)[C@H](Cc2c[nH]c3ccc(F)cc23)NC(=O)[C@@H](C)NC(=O)[C@H](CCCCN)NC(=O)CCSCc2cccc(c2)CSC[C@@H](C(N)=O)NC(=O)[C@]2(C)CCCN2C(=O)[C@H](Cc2ccc(O)cc2)NC(=O)C2=CN=C1S2 (some centres unmarked) [Compound 480] ([Mpa]K[dA][Trp(5-F)][Trp(5-F)][X48]Y[αMeP]C-NH2; linker 1-9 via mXylylene) | 500 to 5000 nM | 100 to 1000 nM
16 | C[C@@]12CCCN1C(=O)[C@H](Cc1ccc(O)cc1)NC(=O)[C@H](Cc1c[nH]cn1)NC(=O)[C@H](CC(=O)O)NC(=O)[C@H](Cc1c[nH]c3ccc(F)cc13)NC(=O)[C@H](Cc1c[nH]c3ccc(F)cc13)NC(=O)CNC(=O)[C@@H]1CCC(=O)N1CCCSCc1cccc(c1)CSC[C@@H](C(N)=O)NC2=O [Compound 481] (G[Trp(5-F)][Trp(5-F)]DHY[αMeP]C-NH2; linker N-8 via X1) | 500 to 5000 nM | 1000 to 12100 nM
